Test results as given in article PMC9851200, “Multiparameter phenotypic screening for endogenous TFEB and TFE3 translocation identifies novel chemical series modulating lysosome function” (Autophagy, 2022).
Read-outs that look alike come from different tables or passages of the source.

Tests used:
Assay in all cases: biochemical
Assay type in all cases: binding
[1] = molecular target: T1, cellular kinases of SH-SY5Y cells (Homo sapiens, UniProt O95835); conditions: 2µM, SH-SY5Y cells, read-out: KiNativ in-cell binding, % Inhibition, LATS1
T1 construct: endogenous in cells; host or cells: SH-SY5Y
Description: (§1) As KINOMEscan is an in vitro assay, and as different cell types have variable kinase expression profiles we sought to determine the kinase binding profile in our SH-SY5Y TFEB-relocalization cell model. […] Bound kinases were pulled down and analyzed by mass spectrometry to determine the in situ kinase binding profile for each compound.

[2] = molecular target: T2, cellular kinases of SH-SY5Y cells (Homo sapiens, UniProt P16591); conditions: 2µM, SH-SY5Y cells
T2 construct: endogenous in cells; host or cells: SH-SY5Y
Description: as §1

[3] = molecular target: cellular kinases of SH-SY5Y cells (Homo sapiens, UniProt P19784); conditions: 2µM; SH-SY5Y cells; labeling site Lys2; peptide DVKPHNVMIDHQQK
Description: as §1

[4] = molecular target: cellular kinases of SH-SY5Y cells (Homo sapiens, UniProt P42345); conditions: 2µM; SH-SY5Y cells; Labeling Site ATP; IQSIAPSLQVITSKQRPR; read-out: KiNativ in-cell binding, % Inhibition, MTOR
Description: as §1

[5] = molecular target: cellular kinases of SH-SY5Y cells (Homo sapiens, UniProt Q8NEB9); conditions: 2µM, SH-SY5Y cells
Description: as §1

[6] = molecular target: T3, cellular kinases of SH-SY5Y cells (Homo sapiens, UniProt P23458); conditions: 2µM, SH-SY5Y cells
T3 construct: endogenous in cells; host or cells: SH-SY5Y
Description: as §1

[7] = molecular target: cellular kinases of SH-SY5Y cells (Homo sapiens, UniProt Q13043); conditions: 2µM; SH-SY5Y cells; Labeling Site Lys1; ETGQIVAIKQVPVESDLQEIIK; read-out: KiNativ in-cell binding, % Inhibition, STK4/MST1
Description: as §1

[8] = molecular target: cellular kinases of SH-SY5Y cells (Homo sapiens, UniProt Q13535); conditions: 2µM; SH-SY5Y cells; Labeling Site ATP; FYIMMCKPK; read-out: KiNativ in-cell binding, % Inhibition, ATR
Description: as §1

[9] = molecular target: T4, cellular kinases of SH-SY5Y cells (Homo sapiens, UniProt Q9UHD2); conditions: 2µM; SH-SY5Y cells; labeling site Lys1; peptide TGDLFAIKVFNNISFLRPVDVQMR
T4 construct: endogenous in cells; host or cells: SH-SY5Y
Description: as §1

[10] = molecular target: cellular kinases of SH-SY5Y cells (Homo sapiens, UniProt Q8IU85); conditions: 2µM, SH-SY5Y cells
Description: as §1

[11] = molecular target: cellular kinases of SH-SY5Y cells (Homo sapiens, UniProt P41743); conditions: 2µM; SH-SY5Y cells; Labeling Site Lys1; IYAMKVVK; read-out: KiNativ in-cell binding, % Inhibition, PRKCI/PKCi
Description: as §1

[12] = molecular target: T5, cellular kinases of SH-SY5Y cells (Homo sapiens, UniProt Q14164); conditions: 2µM; SH-SY5Y cells; Labeling Site Lys1; SGELVAVKVFNTTSYLRPR; read-out: KiNativ in-cell binding, % Inhibition, IKBKE/IKKe
T5 construct: endogenous in cells; host or cells: SH-SY5Y
Description: as §1

[13] = molecular target: T6, cellular kinases of SH-SY5Y cells (Homo sapiens, UniProt Q15131); conditions: 2µM; SH-SY5Y cells; labeling site Lys2; peptide DLKVSNLLMTDK
T6 construct: endogenous in cells; host or cells: SH-SY5Y
Description: as §1

[14] = molecular target: T7, cellular kinases of SH-SY5Y cells (Homo sapiens, UniProt Q6PHR2); conditions: 2µM; SH-SY5Y cells; labeling site Lys1; peptide EVVAIKCVAK
T7 construct: endogenous in cells; host or cells: SH-SY5Y
Description: as §1

[15] = molecular target: cellular kinases of SH-SY5Y cells (Homo sapiens, UniProt Q9HCP0); conditions: 2µM; SH-SY5Y cells; Labeling Site Lys2; DVKPENFLIGR; read-out: KiNativ in-cell binding, % Inhibition, CK1g1
Description: as §1

[16] = molecular target: cellular kinases of SH-SY5Y cells (Homo sapiens, UniProt O00329); conditions: 2µM; SH-SY5Y cells; Labeling Site ATP; VNWLAHNVSKDNRQ; read-out: KiNativ in-cell binding, % Inhibition, PIK3CD
Description: as §1

[17] = molecular target: T8, cellular kinases of SH-SY5Y cells (Homo sapiens, UniProt Q13418); conditions: 2µM, SH-SY5Y cells
T8 construct: endogenous in cells; host or cells: SH-SY5Y
Description: as §1

[18] = molecular target: T9, cellular kinases of SH-SY5Y cells (Homo sapiens, UniProt Q8NB16); conditions: 2µM; SH-SY5Y cells; labeling site Lys1; peptide APVAIKVFK
T9 construct: endogenous in cells; host or cells: SH-SY5Y
Description: as §1

[19] = molecular target: T10, cellular kinases of SH-SY5Y cells (Homo sapiens, UniProt Q9C0K7); conditions: 2µM; SH-SY5Y cells; labeling site Lys1; peptide HTPTGTLVTIKITNLENCNEER
T10 construct: endogenous in cells; host or cells: SH-SY5Y
Description: as §1

[20] = molecular target: T11, cellular kinases of SH-SY5Y cells (Homo sapiens, UniProt Q96BR1); conditions: 2µM; SH-SY5Y cells; Labeling Site Lys1; FYAVKVLQK; read-out: KiNativ in-cell binding, % Inhibition, SGK3
T11 construct: endogenous in cells; host or cells: SH-SY5Y
Description: as §1

[21] = molecular target: cellular kinases of SH-SY5Y cells (Homo sapiens, UniProt P48736); conditions: 2µM; SH-SY5Y cells; Labeling Site ATP; KKPLWLEFK; read-out: KiNativ in-cell binding, % Inhibition, PIK3CG
Description: as §1

T8 sequence (Q13418 whole entry): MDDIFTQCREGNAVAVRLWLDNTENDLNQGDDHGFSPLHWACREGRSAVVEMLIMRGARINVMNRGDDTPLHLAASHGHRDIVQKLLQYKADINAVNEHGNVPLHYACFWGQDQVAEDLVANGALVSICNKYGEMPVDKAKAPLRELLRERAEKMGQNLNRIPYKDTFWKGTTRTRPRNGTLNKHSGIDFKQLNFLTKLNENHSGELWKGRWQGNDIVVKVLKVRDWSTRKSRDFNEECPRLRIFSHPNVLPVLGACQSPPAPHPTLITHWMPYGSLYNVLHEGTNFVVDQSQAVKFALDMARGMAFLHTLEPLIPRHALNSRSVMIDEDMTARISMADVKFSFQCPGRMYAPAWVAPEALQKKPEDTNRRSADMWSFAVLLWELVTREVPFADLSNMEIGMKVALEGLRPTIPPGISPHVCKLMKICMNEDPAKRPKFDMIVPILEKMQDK
T2 sequence (P16591 whole entry): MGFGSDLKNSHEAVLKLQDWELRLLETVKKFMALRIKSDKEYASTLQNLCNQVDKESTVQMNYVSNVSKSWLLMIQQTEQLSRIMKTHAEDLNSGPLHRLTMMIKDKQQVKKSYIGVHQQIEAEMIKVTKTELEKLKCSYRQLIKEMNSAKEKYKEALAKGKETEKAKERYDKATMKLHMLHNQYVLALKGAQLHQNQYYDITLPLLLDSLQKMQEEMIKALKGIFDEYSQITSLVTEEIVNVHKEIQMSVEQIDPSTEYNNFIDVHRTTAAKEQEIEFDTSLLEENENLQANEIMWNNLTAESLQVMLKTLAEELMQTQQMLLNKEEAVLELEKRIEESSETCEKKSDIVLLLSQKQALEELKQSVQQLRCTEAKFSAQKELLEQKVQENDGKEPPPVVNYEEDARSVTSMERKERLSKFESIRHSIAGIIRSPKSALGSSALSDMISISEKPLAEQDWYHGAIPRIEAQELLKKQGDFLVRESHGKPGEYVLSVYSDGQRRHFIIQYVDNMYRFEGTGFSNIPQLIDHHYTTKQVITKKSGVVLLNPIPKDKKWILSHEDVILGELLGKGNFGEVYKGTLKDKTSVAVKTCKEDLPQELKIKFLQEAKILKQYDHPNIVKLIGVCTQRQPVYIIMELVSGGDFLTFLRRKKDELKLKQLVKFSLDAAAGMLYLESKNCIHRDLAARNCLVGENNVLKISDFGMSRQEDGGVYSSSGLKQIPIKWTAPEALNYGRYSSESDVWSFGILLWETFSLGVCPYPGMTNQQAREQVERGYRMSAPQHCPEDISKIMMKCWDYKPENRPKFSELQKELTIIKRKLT
Sequence of cellular kinases of SH-SY5Y cells (Homo sapiens, UniProt Q8IU85) (Q8IU85 whole entry): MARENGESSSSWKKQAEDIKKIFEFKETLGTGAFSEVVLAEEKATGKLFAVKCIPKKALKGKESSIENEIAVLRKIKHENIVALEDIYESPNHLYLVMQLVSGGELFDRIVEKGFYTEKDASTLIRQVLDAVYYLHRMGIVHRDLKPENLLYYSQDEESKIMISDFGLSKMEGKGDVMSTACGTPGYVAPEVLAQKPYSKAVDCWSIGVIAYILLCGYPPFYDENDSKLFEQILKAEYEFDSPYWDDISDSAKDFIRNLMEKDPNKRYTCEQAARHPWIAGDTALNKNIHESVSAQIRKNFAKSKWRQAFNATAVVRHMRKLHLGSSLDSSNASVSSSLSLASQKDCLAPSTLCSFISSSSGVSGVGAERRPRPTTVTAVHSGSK
T1 sequence (O95835 whole entry): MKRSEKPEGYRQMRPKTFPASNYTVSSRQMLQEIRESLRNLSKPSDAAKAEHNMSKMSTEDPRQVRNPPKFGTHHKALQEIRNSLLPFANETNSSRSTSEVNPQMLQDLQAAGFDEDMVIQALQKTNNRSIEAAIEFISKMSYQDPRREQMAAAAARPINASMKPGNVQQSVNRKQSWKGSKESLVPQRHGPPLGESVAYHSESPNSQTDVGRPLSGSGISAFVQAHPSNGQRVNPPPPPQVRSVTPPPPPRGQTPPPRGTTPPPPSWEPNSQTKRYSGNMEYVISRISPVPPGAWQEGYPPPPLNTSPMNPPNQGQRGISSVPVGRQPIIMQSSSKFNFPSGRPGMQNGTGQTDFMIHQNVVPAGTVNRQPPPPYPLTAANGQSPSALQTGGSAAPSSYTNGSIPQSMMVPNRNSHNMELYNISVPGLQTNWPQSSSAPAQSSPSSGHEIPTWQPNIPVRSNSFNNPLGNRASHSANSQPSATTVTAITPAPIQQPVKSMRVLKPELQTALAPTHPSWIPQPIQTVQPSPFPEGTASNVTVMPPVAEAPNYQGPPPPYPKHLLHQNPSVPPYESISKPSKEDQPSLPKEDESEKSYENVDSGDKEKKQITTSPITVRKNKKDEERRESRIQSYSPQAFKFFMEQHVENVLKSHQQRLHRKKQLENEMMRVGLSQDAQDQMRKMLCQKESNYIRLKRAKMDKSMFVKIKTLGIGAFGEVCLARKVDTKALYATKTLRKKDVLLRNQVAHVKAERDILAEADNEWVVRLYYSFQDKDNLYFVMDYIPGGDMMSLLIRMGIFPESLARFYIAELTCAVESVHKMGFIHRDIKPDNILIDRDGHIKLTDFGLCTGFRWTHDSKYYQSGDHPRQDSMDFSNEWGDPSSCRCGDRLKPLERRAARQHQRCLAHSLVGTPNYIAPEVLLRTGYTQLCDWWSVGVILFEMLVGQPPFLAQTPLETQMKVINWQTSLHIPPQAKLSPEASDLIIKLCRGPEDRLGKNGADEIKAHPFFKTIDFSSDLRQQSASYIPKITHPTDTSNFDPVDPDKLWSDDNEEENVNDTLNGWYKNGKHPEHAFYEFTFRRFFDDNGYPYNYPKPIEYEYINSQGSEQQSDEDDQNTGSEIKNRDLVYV
Sequence of cellular kinases of SH-SY5Y cells (Homo sapiens, UniProt Q8NEB9) (Q8NEB9 whole entry): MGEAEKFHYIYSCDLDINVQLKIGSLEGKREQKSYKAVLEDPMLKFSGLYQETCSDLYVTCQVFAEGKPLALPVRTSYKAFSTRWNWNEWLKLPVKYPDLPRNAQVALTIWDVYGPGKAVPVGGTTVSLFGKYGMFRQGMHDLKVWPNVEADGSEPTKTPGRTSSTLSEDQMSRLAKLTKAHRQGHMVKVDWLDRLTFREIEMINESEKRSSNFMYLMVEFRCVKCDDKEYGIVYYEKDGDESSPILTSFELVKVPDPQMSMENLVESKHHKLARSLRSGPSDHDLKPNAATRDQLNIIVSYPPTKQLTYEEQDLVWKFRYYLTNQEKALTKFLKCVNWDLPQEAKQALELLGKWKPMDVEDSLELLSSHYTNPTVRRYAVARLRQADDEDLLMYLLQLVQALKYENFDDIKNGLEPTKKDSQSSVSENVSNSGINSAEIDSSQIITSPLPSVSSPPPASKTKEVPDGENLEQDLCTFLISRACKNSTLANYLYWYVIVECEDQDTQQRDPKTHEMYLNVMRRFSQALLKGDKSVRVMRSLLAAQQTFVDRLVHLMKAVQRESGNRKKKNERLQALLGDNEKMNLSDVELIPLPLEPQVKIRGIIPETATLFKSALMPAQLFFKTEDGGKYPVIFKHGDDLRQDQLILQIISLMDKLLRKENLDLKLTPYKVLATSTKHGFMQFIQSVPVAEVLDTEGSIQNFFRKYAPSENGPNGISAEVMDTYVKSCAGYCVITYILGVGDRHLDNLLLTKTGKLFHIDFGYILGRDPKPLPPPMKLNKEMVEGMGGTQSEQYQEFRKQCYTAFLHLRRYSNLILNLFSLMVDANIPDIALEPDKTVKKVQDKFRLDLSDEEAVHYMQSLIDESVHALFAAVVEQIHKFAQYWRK
T3 sequence (P23458 whole entry): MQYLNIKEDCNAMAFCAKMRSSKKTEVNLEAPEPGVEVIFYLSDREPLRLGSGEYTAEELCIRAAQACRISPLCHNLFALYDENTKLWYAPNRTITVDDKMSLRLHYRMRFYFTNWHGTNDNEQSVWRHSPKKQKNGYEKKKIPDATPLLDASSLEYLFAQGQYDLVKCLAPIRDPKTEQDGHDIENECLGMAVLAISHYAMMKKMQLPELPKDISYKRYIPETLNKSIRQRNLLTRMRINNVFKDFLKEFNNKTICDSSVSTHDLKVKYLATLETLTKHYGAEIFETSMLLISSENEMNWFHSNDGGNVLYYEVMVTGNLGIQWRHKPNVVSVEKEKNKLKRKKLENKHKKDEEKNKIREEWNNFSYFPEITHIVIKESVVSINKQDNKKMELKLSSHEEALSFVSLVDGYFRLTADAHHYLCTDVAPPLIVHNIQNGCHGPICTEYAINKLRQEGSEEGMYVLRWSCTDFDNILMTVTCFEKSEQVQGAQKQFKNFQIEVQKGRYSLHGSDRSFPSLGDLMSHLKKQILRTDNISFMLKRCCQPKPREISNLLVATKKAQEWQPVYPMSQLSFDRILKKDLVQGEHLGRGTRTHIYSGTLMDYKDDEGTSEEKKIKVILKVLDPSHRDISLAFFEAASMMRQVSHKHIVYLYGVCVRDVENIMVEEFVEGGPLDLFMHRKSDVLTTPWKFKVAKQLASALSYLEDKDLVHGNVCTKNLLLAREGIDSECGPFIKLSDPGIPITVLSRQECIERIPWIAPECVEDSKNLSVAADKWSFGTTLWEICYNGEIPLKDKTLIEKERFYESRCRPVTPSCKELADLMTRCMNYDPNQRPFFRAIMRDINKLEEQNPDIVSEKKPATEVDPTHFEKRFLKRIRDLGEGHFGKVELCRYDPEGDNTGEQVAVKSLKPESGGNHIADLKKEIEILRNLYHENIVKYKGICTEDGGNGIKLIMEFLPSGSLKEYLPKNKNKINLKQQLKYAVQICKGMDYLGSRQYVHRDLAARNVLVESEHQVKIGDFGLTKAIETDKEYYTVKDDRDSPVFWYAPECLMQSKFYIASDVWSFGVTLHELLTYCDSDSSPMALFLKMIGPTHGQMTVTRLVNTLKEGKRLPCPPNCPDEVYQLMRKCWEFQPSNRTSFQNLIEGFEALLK

For Cc1cccc(-c2nc(Nc3ccc4ncsc4c3)c3ccccc3n2)n1 [NK140], the inhibition at 2 µM ([1]; Labeling Site Lys1, ALYATKTLR) was 20.9%, the inhibition at 2 µM ([1]; Labeling Site Lys2, DIKPDNILIDR) was 19.3% and the “KiNativ in-cell binding, FER” value ([2]; labeling site Activation Loop, peptide QEDGGVYSSSGLKQIPIK) was -42.5. For the same compound, the “KiNativ in-cell binding, FER” value ([2]; labeling site Lys1, peptide TSVAVKTCKEDLPQELK) was -53.4, the “KiNativ in-cell binding, CSNK2A2” value [3] was -67.6 and the inhibition at 2 µM [4] was 18.4%. The inhibition at 2 µM ([5]; Labeling Site ATP, TEDGGKYPVIFKHGDDLRQDQLILQIISLMDK, read-out: KiNativ in-cell binding, % Inhibition, PIK3C3) was -69%, the “KiNativ in-cell binding, PIK3C3” value ([5]; labeling site ATP, peptide TEDGGKYPVIFKHGDDLR) was -30.4 and the inhibition at 2 µM ([6]; Labeling Site Lys1, YDPEGDNTGEQVAVKSLKPESGGNHIADLKK, read-out: KiNativ in-cell binding, % Inhibition, JAK1 domain2) was 2.4%. For the same compound, the “KiNativ in-cell binding, JAK1 domain2” value ([6]; labeling site Activation Loop, peptide IGDFGLTKAIETDKEYYTVK) was -56.1, the inhibition at 2 µM [7] was 39% and the inhibition at 2 µM [8] was -42.5%. The “KiNativ in-cell binding, TBK1” value [9] was -253.9, the inhibition at 2 µM ([10]; Labeling Site Lys1, LFAVKCIPK, read-out: KiNativ in-cell binding, % Inhibition, CaMK1d) was -23% and the “KiNativ in-cell binding, CaMK1d” value ([10]; labeling site Lys2, peptide DLKPENLLYYSQDEESK) was -24.1. For the same compound, the inhibition at 2 µM [11] was -1.3%, the inhibition at 2 µM [12] was 34.5% and the “KiNativ in-cell binding, CDK10” value [13] was 3.3. For the same compound, the “KiNativ in-cell binding, ULK3” value [14] was -25.0, the inhibition at 2 µM [15] was -28.2% and the inhibition at 2 µM [16] was -29.2%. The inhibition at 2 µM ([17]; Labeling Site Protein Kinase Domain, ISMADVKFSFQCPGR, read-out: KiNativ in-cell binding, % Inhibition, ILK) was -31.8%, the “KiNativ in-cell binding, ILK” value ([17]; labeling site Lys1, peptide WQGNDIVVKVLK) was -23.6 and the “KiNativ in-cell binding, MLKL” value [18] was -57.5. For the same compound, the “KiNativ in-cell binding, STRADB” value [19] was 0.5, the inhibition at 2 µM [20] was 1% and the inhibition at 2 µM [21] was 27.6%.
